From patent publication US20080108685A1, “Novel Use for Alpha Sympathomimetics Having a 2-Imidazoline Structure” (priority 2004, published 2008)
Like-named read-outs stand apart in the source and are kept apart here.

Key:
MDCK cells = details: dog
HRV 14 [1] = test: residual infectiousness (TCID50/ml) by virus titration, HeLa cells infected with HRV 14; type: cell-based, human rhinovirus; details: HRV 14, HeLa cells
HRV 2 = type: cell-based, human rhinovirus; details: HRV 2, HeLa cells, 72 hours after infection
influenza A virus = type: cell-based; details: MDCK cells
HRV 14 [2] = test: plaque reduction assay, HeLa cells infected with HRV 14; type: cell-based, human rhinovirus; details: for Plaque reduction rel. inhibition: HRV 14, HeLa cells, M.O.I. 0.0004; for Rel. total inhibition: HRV 14, plaque reduction and residual infectiousness combined
HRV 14 [3] = test: high-throughput cytopathic effect inhibitory assay (CPE), HeLa cells infected with HRV 14; type: cell-based, human rhinovirus; details: HRV 14, HeLa cells, second series of experiments
[4] = dilution 1:2 of 0.003125% (W/V)
[5] = dilution 1:4 of 0.003125% (W/V)
[6] = dilution 1:8 of 0.003125% (W/V)
[7] = dilution 1:16 of 0.003125% (W/V)
[8] = dilution 1:32 of 0.003125% (W/V)

With `Cc1cc(C(C)(C)C)c(O)c(C)c1CC1=NCCN1` [oxymetazoline] the “active-ingredient concentration at which no effects which reduce the metabolism of the cells arise (non-cytotoxic concentration)” value (MDCK cells) was 0.005 % (W/V), the “Residual infectiousness rel. inhibition” value (HRV 14 [1]; [4]) was 33.33% and the “Residual infectiousness rel. inhibition” value (HRV 14 [1]; [5]) was 20.83%. The “Residual infectiousness rel. inhibition” value (HRV 14 [1]; [6]) was 18.75%, the “Residual infectiousness rel. inhibition” value (HRV 14 [1]; [7]) was 18.75% and the “Residual infectiousness rel. inhibition” value (HRV 14 [1]; [8]) was 12.50%. It also gave a CPE inhibition (HRV 2; [4]) of 40.5%, a CPE inhibition (HRV 2; [5]) of 23.2% and a CPE inhibition (influenza A virus; dilution 1:2 of 0.005% (W/V)) of 52.8%. The CPE inhibition (influenza A virus; dilution 1:4 of 0.005% (W/V)) was 35.5%, the CPE inhibition (influenza A virus; dilution 1:8 of 0.005% (W/V)) was 23.1% and the CPE inhibition (influenza A virus; dilution 1:16 of 0.005% (W/V)) was 9.1%. For the same compound, the “Plaque reduction rel. inhibition” value (HRV 14 [2]; [4]) was 44.26%, the “Plaque reduction rel. inhibition” value (HRV 14 [2]; [5]) was 32.98% and the “Plaque reduction rel. inhibition” value (HRV 14 [2]; [6]) was 25.74%. For the same compound, the “Plaque reduction rel. inhibition” value (HRV 14 [2]; [7]) was 17.66%, the “Plaque reduction rel. inhibition” value (HRV 14 [2]; [8]) was 14.26% and the Rel. total inhibition (HRV 14 [2]; [4]) was 38.79. For the same compound, the Rel. total inhibition (HRV 14 [2]; [5]) was 26.91, the Rel. total inhibition (HRV 14 [2]; [6]) was 22.25 and the Rel. total inhibition (HRV 14 [2]; [7]) was 18.20. The Rel. total inhibition (HRV 14 [2]; [8]) was 13.38, the CPE inhibition (HRV 14 [3]; [4]) was 50.5% and the CPE inhibition (HRV 14 [3]; [5]) was 53.6%. It also gave a CPE inhibition (HRV 14 [3]; [6]) of 37.5% and a CPE inhibition (HRV 14 [3]; [7]) of 5.9%.
